Where no end group is shown, it is not given here.
Key:
[1] = tested on: myelin reactive T cells in PBMCs; experiment: EAA with positivity by Variance Evaluation Method or CPM Variance Method (clinical trials); assay type: cell-based, human; details: clinical trial population, RR-MS or CIS subjects
From the text: The predetermined value may also be calculated using a Variance Evaluation Method as follows: • 1. EAAs may be run on a given patient population (minimum of 120 assays from 120 unique subjects) • 2. A “negative population” may be created by averaging all SI values<2.5 • 3. The Standard Deviation (SD) may be calculated for each peptide • 4. The following for each peptide may be then be calculated: • a. Average+1SD • b. Average+2SD • c. Average+3SD • 5. The following SIs may be considered above the predetermined value: • a. SI greater than or equal to the average+3SD • b. Any SI greater than or equal to 2.5
The predetermined value may also be evaluated using a Counts per Minute (CPM) Variance Method. This algorithm may set a comprehensive cutoff for all peptides within a given assay. It may be calculated as follows: • 1. EAAs may be run and the CPM for all control (media only, no antigen) wells averaged. • 2. The SD for CPM of the control wells may then be calculated. • 3. The following may then be calculated for the control wells: • a. Average+1SD • b. Average+2SD • c. Average+3SD • 4. Any peptide with an average CPM greater than or equal to the average+3SD of the control wells may be considered above the predetermined value.
Any peptide, either analyzed in an individual well or as averaged over wells run in triplicate, with an SI≧2.5, an SI≧average+3SD by the Variance Evaluation Method, or an SI≧average+3SD by the CPM variance method may be considered above the predetermined value, which may indicate a T cell(s) positive for reactivity to a peptide.
The peptides of Example 3 have been tested in 429 EAAs in clinical trials as follows. […] Pre-Vaccine EAAs have 158 positive out of 387 assays (40.8%), with Relapse Remitting MS patients (RRMS) showing 150 positive of 368 assays (40.8%), and Clinically Isolated Syndrome (CIS) patients showing 8 positive of 19 assays (42.1%).
Over the course of 6 months a study was conducted with 120 subjects meeting the criteria for the clinical trial.
The above mentioned population of subjects was evaluated by EAA using the Variance Evaluation Method and CPM Variance Method as described above, and deemed eligible for vaccine production. Of the 120 attempts to manufacture vaccine, there were 2 shipping failures (blood was not received within our stated criteria), 1 culture was lost to contamination and 5 samples arrived with low cell volume/yield. Of the remaining 112 subjects, vaccine was successfully generated in 89 subjects, with 22 still in production (98.9% of eligible samples, 92.5% of all samples completed). From this, a positive EAA was deemed predictive of the ability to manufacture a vaccine to therapeutic dose by methods disclosed herein.

myelin-reactive T cells = experiment: Growth of myelin reactive T cell lines with low stimulation indices; assay type: cell-based, human
From the text: Using the algorithms described above, statistically significant SIs as low as 1.3 have been observed and therefore should be able grow in response to antigen. To verify this ability, 5 cell lines across two patients are shown with an SI<2.0. The results are shown in Table 12 and FIG. 24, which indicate growth of these cell lines with only peptide antigen stimulation and common T cell growth factors.
PBMC for subject 1042 were run in the EAA, and […] were positive, including PLPm18 with an SI of 1.8, PLPm26 with an SI of 2.5 and PLPm28 with an SI of 2.5. […] PBMC for subject 1014 were run in the EAA, and 4 mixes were positive, including MBPm14 with an SI of 1.7, PLPm17 with an SI of 1.7, PLPm28 with an SI of 2.2 and MOGm6 with an SI of 1.9. […]
PBMCs were isolated via density gradient centrifugation from peripheral blood obtained through venipuncture into ACD-1 anticoagulant. PBMCs were plated at 2.5E+06 cells/well in 24 well plates. Antigen in the form of 16mer peptides identified in the EAA were added at a final concentration of 20 ug/ml. Interluekin-2 (IL-2) was added at a final concentration of 100 U/ml starting at 48 hours and IL-2 was added at the same concentration with each feeding or splitting of wells. Peptide restimulation in the presence of antigen presenting cells (APCs-autologous PBMCs irradiated at 3500 rad) was done at days 7, 14 and 21. Interleukin-15 (IL-15) was added at a final concentration of 5 ng/ml-20 ng/ml (lot specific) starting at day 14 and continued through the remainder of the culture period. Cells lines were all harvested by day 35 and had achieved expansions of 3.0-8.2 fold.

FAVLKLMGRGTKF [PLP67]
# of Subjects (frequency of identification) [1]: 5
% of Subjects (frequency of identification) [1]: 4.2%

MOGm2: mix of MOG 3 and MOG 4 (chain 1 RHPIRALVGDEVELPC; chain 2 RALVGDEVELPCRISP)
# of Subjects (frequency of identification) [1]: 6
% of Subjects (frequency of identification) [1]: 5.0%

MOGm3: mix of MOG 5 and MOG 6 (chain 1 GDEVELPCRISPGKNA; chain 2 ELPCRISPGKNATGME)
# of Subjects (frequency of identification) [1]: 4
% of Subjects (frequency of identification) [1]: 3.4%

MOGm4: mix of MOG 7 and MOG 8 (chain 1 RISPGKNATGMEVGWY; chain 2 GKNATXMEVGWYRPPF; X not resolved here; also: mixture of MOG 7 and MOG 8)
# of Subjects (frequency of identification) [1]: 3
% of Subjects (frequency of identification) [1]: 2.5%

MOGm5: mix of MOG 9 and MOG 10 (chain 1 TGMEVGWYRPPFSRVV; chain 2 VGWYRPPFSRVVHLYR)
# of Subjects (frequency of identification) [1]: 8
% of Subjects (frequency of identification) [1]: 6.7%

MOGm6: mix of MOG 11 and MOG 12 (chain 1 RPPFSRVVHLYRNGKD; chain 2 SRVVHLYRNGKDQDGD)
# of Subjects (frequency of identification) [1]: 4
% of Subjects (frequency of identification) [1]: 3.4%
Fold Expansion (myelin-reactive T cells; subject 1014, Day 0): 1.3
Viable Cell Count, Count/well (myelin-reactive T cells; subject 1014, Day 0): 2.50E+06
Viable Cell Count, Total Cells (myelin-reactive T cells; subject 1014, Day 0): 3.00E+07
Fold Expansion (myelin-reactive T cells; subject 1014, Day 17): 0.7
Viable Cell Count, Count/well (myelin-reactive T cells; subject 1014, Day 17): 2.18E+06
Viable Cell Count, Total Cells (myelin-reactive T cells; subject 1014, Day 17): 1.96E+07
Fold Expansion (myelin-reactive T cells; subject 1014, Day 19): 1.3
Viable Cell Count, Count/well (myelin-reactive T cells; subject 1014, Day 19): 4.27E+06
Viable Cell Count, Total Cells (myelin-reactive T cells; subject 1014, Day 19): 3.84E+07
Fold Expansion (myelin-reactive T cells; subject 1014, Day 28): 4.1
Viable Cell Count, Count/well (myelin-reactive T cells; subject 1014, Day 28): 4.35E+06
Viable Cell Count, Total Cells (myelin-reactive T cells; subject 1014, Day 28): 1.22E+08
Fold Expansion (myelin-reactive T cells; subject 1014, Day 33): 4.4
Viable Cell Count, Count/well (myelin-reactive T cells; subject 1014, Day 33): 4.71E+06
Viable Cell Count, Total Cells (myelin-reactive T cells; subject 1014, Day 33): 1.32E+08
Fold Expansion (myelin-reactive T cells; subject 1014, Day 35): 3.7
Viable Cell Count, Count/well (myelin-reactive T cells; subject 1014, Day 35): 3.93E+06
Viable Cell Count, Total Cells (myelin-reactive T cells; subject 1014, Day 35): 1.10E+08

MOGm7: mix of MOG 13 and MOG 14 (chain 1 HLYRNGKDQDGDQAPE; chain 2 NGKDQDGDQAPEYRGR)
# of Subjects (frequency of identification) [1]: 5
% of Subjects (frequency of identification) [1]: 4.2%

MOGm19: mix of MOG 37 and MOG 38 (chain 1 VFLCLQYRLRGKLRAE; chain 2 LQYRLRGKLRAEIENL)
# of Subjects (frequency of identification) [1]: 6
% of Subjects (frequency of identification) [1]: 5.0%

MOGm20: mix of MOG 39 and MOG 40 (chain 1 LRGKLRAEIENLHRTF; chain 2 LRAEIENLHRTFDPHF)
# of Subjects (frequency of identification) [1]: 1
% of Subjects (frequency of identification) [1]: 0.8%

MOGm21: mix of MOG 41 and MOG 42 (chain 1 IENLHRTFDPHFLRVP; chain 2 HRTFDPHFLRVPCWKI)
# of Subjects (frequency of identification) [1]: 40
% of Subjects (frequency of identification) [1]: 33.6%

MOGm22: mix of MOG 43 and MOG 44 (chain 1 DPHFLRVPCWKITLFV; chain 2 LRVPCWKITLFVIVPV)
# of Subjects (frequency of identification) [1]: 2
% of Subjects (frequency of identification) [1]: 1.7%

MOGm23: mix of MOG 45 and MOG 46 (chain 1 CWKITLFVIVPVLGPL; chain 2 TLFVIVPVLGPLVALI)
# of Subjects (frequency of identification) [1]: 20
% of Subjects (frequency of identification) [1]: 16.8%

MOGm24: mix of MOG 47 and MOG 48 (chain 1 IVPVLGPLVALIICYN; chain 2 LGPLVALIICYNWLHR)
# of Subjects (frequency of identification) [1]: 15
% of Subjects (frequency of identification) [1]: 12.6%

MOGm26: mix of MOG 51 and MOG 52 (chain 1 WLHRRLAGQFLEELRN; chain 2 RLAGQFLEELRNPF)
# of Subjects (frequency of identification) [1]: 9
% of Subjects (frequency of identification) [1]: 7.6%

PLPm4: mix of PLP 7 and PLP 8 (chain 1 CFFGVALFCGCGHEAL; chain 2 VALFCGCGHEALTGTE)
# of Subjects (frequency of identification) [1]: 26
% of Subjects (frequency of identification) [1]: 21.8%

PLPm6: mix of PLP 11 and PLP 12 (chain 1 TGTEKLIETYFSKNYQ; chain 2 KLIETYFSKNYQDYEY)
# of Subjects (frequency of identification) [1]: 4
% of Subjects (frequency of identification) [1]: 3.4%

PLPm11: mix of PLP 21 and PLP 22 (chain 1 LYGALLLAEGFYTTGA; chain 2 LLLAEGFYTTGAVRQI)
# of Subjects (frequency of identification) [1]: 4
% of Subjects (frequency of identification) [1]: 3.4%

PLPm12: mix of PLP 23 and PLP 24 (chain 1 EGFYTTGAVRQIFGDY; chain 2 TTGAVRQIFGDYKTTI)
# of Subjects (frequency of identification) [1]: 1
% of Subjects (frequency of identification) [1]: 0.8%

PLPm13: mix of PLP 25 and PLP 26 (chain 1 VRQIFGDYKTTICGKG; chain 2 FGDYKTTICGKGLSAT)
# of Subjects (frequency of identification) [1]: 3
% of Subjects (frequency of identification) [1]: 2.5%

PLPm17: mix of PLP 33 and PLP 34 (chain 1 QHQAHSLERVCHCLGK; chain 2 HSLERVCHCLGKWLGH)
# of Subjects (frequency of identification) [1]: 14
% of Subjects (frequency of identification) [1]: 11.8%
Fold Expansion (myelin-reactive T cells; subject 1014, Day 0): 1.0
Viable Cell Count, Count/well (myelin-reactive T cells; subject 1014, Day 0): 2.50E+06
Viable Cell Count, Total Cells (myelin-reactive T cells; subject 1014, Day 0): 2.25E+07
Fold Expansion (myelin-reactive T cells; subject 1014, Day 17): 0.7
Viable Cell Count, Count/well (myelin-reactive T cells; subject 1014, Day 17): 2.34E+06
Viable Cell Count, Total Cells (myelin-reactive T cells; subject 1014, Day 17): 2.11E+07
Fold Expansion (myelin-reactive T cells; subject 1014, Day 19): 1.2
Viable Cell Count, Count/well (myelin-reactive T cells; subject 1014, Day 19): 3.85E+06
Viable Cell Count, Total Cells (myelin-reactive T cells; subject 1014, Day 19): 3.47E+07
Fold Expansion (myelin-reactive T cells; subject 1014, Day 28): 3.5
Viable Cell Count, Count/well (myelin-reactive T cells; subject 1014, Day 28): 4.77E+06
Viable Cell Count, Total Cells (myelin-reactive T cells; subject 1014, Day 28): 1.05E+08
Fold Expansion (myelin-reactive T cells; subject 1014, Day 33): 2.9
Viable Cell Count, Count/well (myelin-reactive T cells; subject 1014, Day 33): 3.89E+06
Viable Cell Count, Total Cells (myelin-reactive T cells; subject 1014, Day 33): 8.56E+07
Fold Expansion (myelin-reactive T cells; subject 1014, Day 35): 4.7
Viable Cell Count, Count/well (myelin-reactive T cells; subject 1014, Day 35): 4.73E+06
Viable Cell Count, Total Cells (myelin-reactive T cells; subject 1014, Day 35): 1.42E+08

PLPm19: mix of PLP 37 and PLP 38 (chain 1 WLGHPDKFVGITYALT; chain 2 PDKFVGITYALTVVWL)
# of Subjects (frequency of identification) [1]: 11
% of Subjects (frequency of identification) [1]: 9.2%

PLPm22: mix of PLP 43 and PLP 44 (chain 1 CSAVPVYIYFNTWTTC; chain 2 PVYIYFNTWTTCQSIA)
# of Subjects (frequency of identification) [1]: 2
% of Subjects (frequency of identification) [1]: 1.7%

PLPm24: mix of PLP 47 and PLP 48 (chain 1 QSIAFPSKTSASIGSL; chain 2 FPSKTSASIGSLCADA)
# of Subjects (frequency of identification) [1]: 7
% of Subjects (frequency of identification) [1]: 5.9%

PLPm25: mix of PLP 49 and PLP 50 (chain 1 TSASIGSLCADARMYG; chain 2 IGSLCADARMYGVLPW)
# of Subjects (frequency of identification) [1]: 3
% of Subjects (frequency of identification) [1]: 2.5%

PLPm32: mix of PLP 63 and PLP 64 (chain 1 ATLVSLLTFMIAATYN; chain 2 SLLTFMIAATYNFAVL)
# of Subjects (frequency of identification) [1]: 12
% of Subjects (frequency of identification) [1]: 10.1%
